This note sets out measurements from patent US20260309717A1, “PROXIMITY INDUCING SYSTEM AND USES THEREOF” (SORBONNE UNIVERSITE, priority 2022, published 2026).

In experiment [1] the target is T1, mCherry-^FIREtag / ^FIREmate-ECFP-Giantin (Halorhodospira halophila, UniProt P16113, A30V/C69G/D97P/F96I, form not given/G21E/G25R/K17N/M100R/M109L/Q41L/Q99S/S72T/T101G/V83A/Y94W/Y98T).
T1 construct: FIREmate-ECFP-Giantin(3131-3259) and mCherry-FIREtag in HeLa cells
T1 sequence (P16113 1-114 A30V/C69G/D97P/F96I/G21E/G25R/K17N/M100R/M109L/Q41L/Q99S/S72T/T101G/V83A/Y94W/Y98T): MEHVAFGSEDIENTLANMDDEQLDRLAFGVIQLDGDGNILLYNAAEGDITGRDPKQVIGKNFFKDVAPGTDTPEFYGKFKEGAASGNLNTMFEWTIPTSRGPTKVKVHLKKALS
Briefly: Reversibility of the ternary assembly (washout), time-lapse spinning-disk confocal microscopy, HeLa cells. The format is cell-based. To be noted: 10 μM. The method, then: HeLa cells co-expressing mCherry-^FIREtag and ^FIREmate-ECFP-Giantin were treated with 10 μM HBR-2,5DM (match1), washed with HBR-2,5DM-free medium and then treated with 10 μM HBIR-3M. Cells were imaged by time-lapse spinning-disk confocal microscopy. FIGS. 9A-D are sets of representative confocal micrographs of untreated cells (9A), cells after addition of HBR-2,5DM (match1) (9B), cells after washout of HBR-2,5DM (match1) (9C), and cells after addition of HBIR-3M (9D). (mCherry: ex/em 561/606-675 nm; FIRE: ex/em 488/508-570 nm). Scale bars are 10 μm.
To test whether formation of the fluorescent ternary assembly could be reversed though removal of the fluorogen, the fusion proteins mCherry-^FIREtag (red fluorescence) and ^FIREmate-ECFP-Giantin (blue fluorescence) were co-expressed in Hela cells (FIG. 9A). Formation of a fluorescent ternary assembly between ^FIREtag, ^FIREmate and HBR-2,5DM was induced by addition of 10 μM of HBR-2,5DM (FIG. 9B). […] The ability to reverse the fluorescence ternary assembly at will allowed to induce repeated catch and release cycles through sequential addition and removal of HBR-2,5DM. The ability to control protein proximity through addition and removal of a molecular inducer of proximity is unprecedented and opens great prospect to control the proximity of two proteins with high temporal resolution.

Experiment [2] deals with T2, ^FIREmate and ^FIREtag (TOM20-ECFP-^FIREmate / mCherry-^FIREtag) (Halorhodospira halophila, UniProt P16113, A30V/C69G/D97P/F96I, form not given/G21E/G25R/K17N/M100R/M109L/Q41L/Q99S/S72T/T101G/V83A/Y94W/Y98T).
T2 construct: TOM20(1-34)-ECFP-FIREmate and mCherry-FIREtag in HeLa or U2OS cells
T2 sequence (P16113 1-114 A30V/C69G/D97P/F96I/G21E/G25R/K17N/M100R/M109L/Q41L/Q99S/S72T/T101G/V83A/Y94W/Y98T): T1 sequence (P16113 1-114 A30V/C69G/D97P/F96I/G21E/G25R/K17N/M100R/M109L/Q41L/Q99S/S72T/T101G/V83A/Y94W/Y98T)
Briefly: Stability of the ternary assembly over time at mitochondria, time-lapse confocal microscopy, U2OS cells. The format is cell-based. To be noted: 10 μM; 1 image every 2 minutes. The method, then:
FIGS. 4A-D illustrate the recruitment over time of cytoplasmic proteins to mitochondria with the proximity inducing system described herein. (4A, C) HeLa cells co-expressing mCherry-^FIREtag and Tom20-ECFP-^FIREmate were treated with 10 μM HBR-2,5DM and imaged by time-lapse confocal microscopy at 1 image per 5 seconds. (4B, D) U2OS cells co-expressing mCherry-^FIREtag and Tom20-ECFP-^FIREmate were treated with 10 μM HBR-2,5DM and imaged by time-lapse confocal microscopy at 1 image every 2 minutes. FIG. 4A is a representative time-lapse of the HeLa cells from the addition of HBR-2,5DM at 0 sec (ex/em 488/508-570 nm). […] Scale bars are 20 μm. FIG. 4B is a representative time-lapse of the U2OS cells from the addition of HBR-2,5DM at 0 min (mCherry: ex/em 561/606-675 nm; FIRE: ex/em 488/508-570 nm; ECFP: ex/em 445/455-499 nm). […] Scale bars are 20 μm. FIG. 4C is a graph showing the temporal evolution of the FIRE signal detected in HeLa cells upon addition of HBR-2,5DM at 0 sec. […] FIG. 4D is a graph showing the temporal evolution of the FIRE signal detected in U2OS cells upon addition of HBR-2,5DM at 0 min. […]
The confocal micrographs were acquired on a Zeiss LSM 980 Laser Scanning Microscope equipped with a plan apochromat 63x/1.4 NA oil immersion objective. […] The images were analyzed using Icy (2.4.0.0) and Fiji (Image J). […]

With `Cc1cc(/C=C2\SC(=S)NC2=O)c(C)cc1O` [HBR-2,5DM, (Z)-5-(4-hydroxy-2,5-dimethylbenzylidene)-2-thioxo-1,3-thiazolidin-4-one], in experiment [1] (then washing with HBR-2,5DM-free medium), the “dissociation of the fluorescent ternary assembly after washout” value is recorded as “rapid dissociation of the fluorescent ternary assembly”. In experiment [1] (then washout), the “reversibility of the fluorescent ternary assembly” value is reported as “full reversibility”. The “duration of fluorescence detected (stability of the ternary fluorescent assembly)” value in experiment [2] is recorded as “more than 25 minutes”.
